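A five-concentration, 48-hour dose response in 96-well plates underlies each endpoint, interpolated linearly between surrounding concentrations. GI50 marks 50% less growth.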 Active and inactive are the calls of the source. No stated cut-off is given here; in the data, active = GI50 up to about 1.1 µM and inactive = higher.
What was measured:
Test in all cases: DTP human tumour cell line panel, 48 h
[1] = tested on: OVCAR-5
[2] = tested on: A498
[3] = tested on: SF-295
[4] = tested on: ACHN
[5] = tested on: UACC-257
[6] = tested on: HT-29
[7] = tested on: SF-539
[8] = tested on: NCI-H23
[9] = tested on: SK-OV-3
[10] = tested on: NCI-H522
[11] = tested on: HCC 2998
[12] = tested on: HOP-62
[13] = tested on: CAKI-1
[14] = tested on: UACC-62
[15] = tested on: HCT-15
[16] = tested on: OVCAR-8
[17] = tested on: CCRF-CEM
[18] = tested on: KM12
[19] = tested on: MDA-N
[20] = tested on: EKVX
[21] = tested on: MDA-MB-435
[22] = tested on: K562
[23] = tested on: PC-3
[24] = tested on: SN12C
[25] = tested on: SK-MEL-5
[26] = tested on: DU-145
[27] = tested on: U-251
[28] = tested on: TK-10
[29] = tested on: SW-620
[30] = tested on: MCF7
[31] = tested on: MOLT-4
[32] = tested on: T47D
[33] = tested on: HOP-92
[34] = tested on: SNB-19
[35] = tested on: COLO 205
[36] = tested on: LOX IMVI
[37] = tested on: M14
[38] = tested on: RPMI-8226
[39] = tested on: SK-MEL-2
[40] = tested on: IGROV-1
[41] = tested on: UO-31
[42] = tested on: Malme-3M
[43] = tested on: OVCAR-4
[44] = tested on: A549
[45] = tested on: SR
[46] = tested on: HL-60
[47] = tested on: HCT-116
[48] = tested on: NCI-H460
[49] = tested on: SF-268
[50] = tested on: SNB-75
[51] = tested on: BT-549
[52] = tested on: NCI-H226
[53] = tested on: Hs-578T
[54] = tested on: OVCAR-3
[55] = tested on: SK-MEL-28
[56] = tested on: 786-0
[57] = tested on: NCI/ADR-RES
[58] = tested on: RXF 393
[59] = tested on: MDA-MB-231

O=C(Nc1cccc2ccccc12)Nn1cnnc1
GI50 [1]: > 100 µM (inactive) | GI50 [2]: > 100 µM (inactive) | GI50 [3]: > 100 µM (inactive) | GI50 [4]: > 100 µM (inactive) | GI50 [5]: > 100 µM (inactive) | GI50 [6]: > 100 µM (inactive) | GI50 [7]: > 100 µM (inactive) | GI50 [8]: > 100 µM (inactive) | GI50 [9]: > 100 µM (inactive) | GI50 [10]: > 100 µM (inactive) | GI50 [11]: > 100 µM (inactive) | GI50 [12]: > 100 µM (inactive) | GI50 [13]: > 100 µM (inactive) | GI50 [14]: > 100 µM (inactive) | GI50 [15]: > 100 µM | GI50 [16]: 19.1 µM (inactive) | GI50 [17]: > 100 µM (inactive) | GI50 [18]: > 100 µM (inactive) | GI50 [19]: > 100 µM (inactive) | GI50 [20]: > 100 µM (inactive) | GI50 [21]: > 100 µM (inactive) | GI50 [22]: > 100 µM (inactive) | GI50 [23]: > 100 µM (inactive) | GI50 [24]: > 100 µM (inactive) | GI50 [25]: > 100 µM (inactive) | GI50 [26]: > 100 µM (inactive) | GI50 [27]: > 100 µM (inactive) | GI50 [28]: > 100 µM (inactive) | GI50 [29]: > 100 µM (inactive) | GI50 [30]: > 100 µM (inactive) | GI50 [31]: > 100 µM (inactive) | GI50 [32]: > 100 µM (inactive) | GI50 [33]: > 100 µM (inactive) | GI50 [34]: > 100 µM (inactive) | GI50 [35]: > 100 µM (inactive) | GI50 [36]: > 100 µM (inactive) | GI50 [37]: > 100 µM (inactive) | GI50 [38]: > 100 µM (inactive) | GI50 [39]: > 100 µM (inactive) | GI50 [40]: > 100 µM (inactive) | GI50 [41]: > 100 µM (inactive) | GI50 [42]: > 100 µM (inactive) | GI50 [43]: > 100 µM (inactive) | GI50 [44]: > 100 µM (inactive) | GI50 [45]: > 100 µM (inactive) | GI50 [46]: > 100 µM (inactive) | GI50 [47]: > 100 µM (inactive) | GI50 [48]: > 100 µM (inactive) | GI50 [49]: > 100 µM (inactive) | GI50 [50]: 27.6 µM (inactive) | GI50 [51]: > 100 µM (inactive) | GI50 [52]: > 100 µM (inactive) | GI50 [53]: > 100 µM (inactive) | GI50 [54]: > 100 µM (inactive) | GI50 [55]: > 100 µM (inactive)

O=C(CCCn1ccnc1[N+](=O)[O-])NCCn1cnc([N+](=O)[O-])c1
GI50 [1]: > 100 µM (inactive) | GI50 [3]: > 100 µM (inactive) | GI50 [4]: > 100 µM (inactive) | GI50 [5]: > 100 µM (inactive) | GI50 [6]: > 100 µM (inactive) | GI50 [7]: > 100 µM (inactive) | GI50 [8]: > 100 µM (inactive) | GI50 [9]: > 100 µM (inactive) | GI50 [10]: > 100 µM (inactive) | GI50 [11]: > 100 µM (inactive) | GI50 [12]: > 100 µM (inactive) | GI50 [13]: > 100 µM (inactive) | GI50 [14]: > 100 µM (inactive) | GI50 [15]: > 100 µM | GI50 [16]: > 100 µM (inactive) | GI50 [56]: > 100 µM (inactive) | GI50 [17]: > 100 µM (inactive) | GI50 [18]: > 100 µM (inactive) | GI50 [19]: > 100 µM (inactive) | GI50 [20]: > 100 µM (inactive) | GI50 [21]: > 100 µM (inactive) | GI50 [22]: > 100 µM (inactive) | GI50 [23]: > 100 µM (inactive) | GI50 [24]: > 100 µM (inactive) | GI50 [25]: > 100 µM (inactive) | GI50 [26]: > 100 µM (inactive) | GI50 [27]: > 100 µM (inactive) | GI50 [28]: > 100 µM (inactive) | GI50 [29]: > 100 µM (inactive) | GI50 [30]: > 100 µM (inactive) | GI50 [31]: > 100 µM (inactive) | GI50 [32]: > 100 µM (inactive) | GI50 [34]: > 100 µM (inactive) | GI50 [35]: > 100 µM (inactive) | GI50 [36]: > 100 µM (inactive) | GI50 [37]: > 100 µM (inactive) | GI50 [38]: > 100 µM (inactive) | GI50 [39]: > 100 µM (inactive) | GI50 [40]: > 100 µM (inactive) | GI50 [41]: > 100 µM (inactive) | GI50 [42]: > 100 µM (inactive) | GI50 [43]: > 100 µM (inactive) | GI50 [44]: > 100 µM (inactive) | GI50 [45]: > 100 µM (inactive) | GI50 [46]: > 100 µM (inactive) | GI50 [47]: > 100 µM (inactive) | GI50 [48]: > 100 µM (inactive) | GI50 [57]: > 100 µM (inactive) | GI50 [49]: > 100 µM (inactive) | GI50 [50]: > 100 µM (inactive) | GI50 [51]: > 100 µM (inactive) | GI50 [52]: > 100 µM (inactive) | GI50 [53]: > 100 µM (inactive) | GI50 [54]: > 100 µM (inactive) | GI50 [55]: > 100 µM (inactive)

Cc1cc(C)nc(NS(=O)(=O)c2ccc(Nc3nnc(/C=C/c4c(O)ccc5ccccc45)c(=O)n3N)cc2)n1
GI50 [1]: 39.3 µM (inactive) | GI50 [3]: 61.1 µM (inactive) | GI50 [4]: 23 µM (inactive) | GI50 [6]: 57.8 µM (inactive) | GI50 [8]: 19.1 µM (inactive) | GI50 [9]: 51.4 µM (inactive) | GI50 [12]: 37.4 µM (inactive) | GI50 [13]: 22.1 µM (inactive) | GI50 [14]: 29 µM (inactive) | GI50 [15]: 10.9 µM | GI50 [16]: 25.7 µM (inactive) | GI50 [56]: 28.6 µM (inactive) | GI50 [17]: 12 µM (inactive) | GI50 [19]: 25.6 µM (inactive) | GI50 [20]: 38.4 µM (inactive) | GI50 [21]: 20.1 µM (inactive) | GI50 [22]: 27.6 µM (inactive) | GI50 [24]: 22.3 µM (inactive) | GI50 [26]: 36.4 µM (inactive) | GI50 [29]: 43.9 µM (inactive) | GI50 [30]: 17.7 µM (inactive) | GI50 [31]: > 100 µM (inactive) | GI50 [32]: 11.1 µM (inactive) | GI50 [33]: 47.5 µM (inactive) | GI50 [34]: 43.1 µM (inactive) | GI50 [37]: 22.1 µM (inactive) | GI50 [38]: 30.1 µM (inactive) | GI50 [40]: 27.9 µM (inactive) | GI50 [41]: 26 µM (inactive) | GI50 [42]: 36.6 µM (inactive) | GI50 [43]: 22.5 µM (inactive) | GI50 [44]: 30.7 µM (inactive) | GI50 [45]: 18.8 µM (inactive) | GI50 [46]: 22.1 µM (inactive) | GI50 [47]: 17.9 µM (inactive) | GI50 [57]: 20 µM (inactive) | GI50 [49]: 33.7 µM (inactive) | GI50 [50]: 17.3 µM (inactive) | GI50 [51]: 32.7 µM (inactive) | GI50 [53]: 79.4 µM (inactive) | GI50 [54]: 13.2 µM (inactive) | GI50 [58]: 18.6 µM (inactive)

OC1CC(O)c2c(Cl)sc(Cl)c21 (configuration not stated)
GI50 [1]: 28.8 µM (inactive) | GI50 [2]: > 100 µM (inactive) | GI50 [3]: 8.41 µM (inactive) | GI50 [4]: 33.2 µM (inactive) | GI50 [5]: 24.8 µM (inactive) | GI50 [6]: 17.5 µM (inactive) | GI50 [7]: > 100 µM (inactive) | GI50 [8]: 21.2 µM (inactive) | GI50 [9]: 27.4 µM (inactive) | GI50 [10]: 23 µM (inactive) | GI50 [12]: 21.2 µM (inactive) | GI50 [13]: 31.5 µM (inactive) | GI50 [14]: 42.8 µM (inactive) | GI50 [15]: 60.5 µM | GI50 [16]: 41.5 µM (inactive) | GI50 [56]: 34.4 µM (inactive) | GI50 [17]: 46.1 µM (inactive) | GI50 [18]: 27 µM (inactive) | GI50 [19]: > 100 µM (inactive) | GI50 [20]: 5.21 µM (inactive) | GI50 [21]: 32 µM (inactive) | GI50 [22]: 62.8 µM (inactive) | GI50 [24]: 46.3 µM (inactive) | GI50 [25]: 47 µM (inactive) | GI50 [26]: 43.4 µM (inactive) | GI50 [27]: 15.5 µM (inactive) | GI50 [28]: 36 µM (inactive) | GI50 [29]: 44.2 µM (inactive) | GI50 [30]: 31.1 µM (inactive) | GI50 [31]: 51.5 µM (inactive) | GI50 [32]: 26.9 µM (inactive) | GI50 [33]: 23.4 µM (inactive) | GI50 [35]: 18.2 µM (inactive) | GI50 [36]: 52.6 µM (inactive) | GI50 [37]: 35.2 µM (inactive) | GI50 [39]: 19.5 µM (inactive) | GI50 [40]: > 100 µM (inactive) | GI50 [41]: 28.2 µM (inactive) | GI50 [42]: 36.3 µM (inactive) | GI50 [43]: 8.79 µM (inactive) | GI50 [59]: 32.1 µM (inactive) | GI50 [44]: 11.7 µM (inactive) | GI50 [45]: > 100 µM (inactive) | GI50 [46]: 30.5 µM (inactive) | GI50 [47]: 31.4 µM (inactive) | GI50 [48]: 21.8 µM (inactive) | GI50 [57]: 43.6 µM (inactive) | GI50 [49]: > 100 µM (inactive) | GI50 [50]: 7.67 µM (inactive) | GI50 [51]: 34.6 µM (inactive) | GI50 [52]: 26.3 µM (inactive) | GI50 [53]: 36 µM (inactive) | GI50 [54]: 14.8 µM (inactive) | GI50 [55]: 29.9 µM (inactive) | GI50 [58]: < 0.01 µM (active)

From ChEMBL document CHEMBL1201862, “PubChem BioAssay data set” (2004)
